Values of other authors in patent publication US20200029555A1, “BIODEGRADABLE HYDROGEL TO DELIVER AQUEOUS BAIT TO CONTROL PEST ANTS” (priority 2016, published 2020).

Key:
Argentine ants = details: 0.001% liquid thiamethoxam
[1] = system: laboratory colonies of queens and workers; details: liquid baits 0.00001-0.005% thiamethoxam; 14-day period

## CN1COCN(Cc2cnc(Cl)s2)/C1=N\[N+](=O)[O-] [thiamethoxam]
Argentine ants
  reduction of Argentine ants in urban settings: successfully reduced
[1]
  mortality of laboratory colonies of queens and workers: complete mortality
